Data published in the supplement of paper PMC10307832.

Assays:
Assay in all cases: relative viability (nuclei count vs DMSO), 5 days (fraction); higher = more cells survive
Neratinib + Phenformin = compound: CCOc1cc2ncc(C#N)c(Nc3ccc(OCc4ccccn4)c(Cl)c3)c2cc1NC(=O)/C=C/CN(C)C [Neratinib] + N=C(N)NC(=N)NCCc1ccccc1 [Phenformin] (partner 250 µM)
Summary of the method: (§1)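 Nuclei were stained with Hoechst during a one-step fixation (final 0.05% Triton X-100, 1% formaldehyde, 1 ug/ml Hoechst) carried out 5 days after dosing, then counted on 4× images. The cells, lung cancer lines in 1536-well plates, had been dosed by pin tool the day after seeding with one drug alone or a fixed anchor-drug dose plus five library-drug doses (not always all listed) in √10 steps. Relative viability is the nuclei count in treated wells divided by that in vehicle wells, and each value is the median of duplicate plates.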

Neratinib + OSI-027 = compound: CCOc1cc2ncc(C#N)c(Nc3ccc(OCc4ccccn4)c(Cl)c3)c2cc1NC(=O)/C=C/CN(C)C [Neratinib] + COc1cccc2cc(-c3nc([C@H]4CC[C@H](C(=O)O)CC4)n4ncnc(N)c34)[nH]c12 [OSI-027] (partner 0.5 µM)
Summary of the method: as §1

Neratinib + Crizotinib = compound: CCOc1cc2ncc(C#N)c(Nc3ccc(OCc4ccccn4)c(Cl)c3)c2cc1NC(=O)/C=C/CN(C)C [Neratinib] + C[C@@H](Oc1cc(-c2cnn(C3CCNCC3)c2)cnc1N)c1c(Cl)ccc(F)c1Cl [Crizotinib] (partner 1 µM)
Summary of the method: as §1

Neratinib + Trametinib = compound: CCOc1cc2ncc(C#N)c(Nc3ccc(OCc4ccccn4)c(Cl)c3)c2cc1NC(=O)/C=C/CN(C)C [Neratinib] + CC(=O)Nc1cccc(-n2c(=O)n(C3CC3)c(=O)c3c(Nc4ccc(I)cc4F)n(C)c(=O)c(C)c32)c1 [Trametinib] (partner 0.02 µM)
Summary of the method: as §1

Cell Line	relative viability (Neratinib + Phenformin; first compound 0.01 µM)	relative viability (Neratinib + Phenformin; first compound 0.03162 µM)	relative viability (Neratinib + Phenformin; first compound 0.1 µM)	relative viability (Neratinib + Phenformin; first compound 0.3162 µM)	relative viability (Neratinib + Phenformin; first compound 1 µM)	relative viability (Neratinib + OSI-027; first compound 0.01 µM)	relative viability (Neratinib + OSI-027; first compound 0.03162 µM)	relative viability (Neratinib + OSI-027; first compound 0.1 µM)	relative viability (Neratinib + OSI-027; first compound 0.3162 µM)	relative viability (Neratinib + OSI-027; first compound 1 µM)	relative viability (Neratinib + Crizotinib; first compound 0.01 µM)	relative viability (Neratinib + Crizotinib; first compound 0.03162 µM)	relative viability (Neratinib + Crizotinib; first compound 0.1 µM)	relative viability (Neratinib + Crizotinib; first compound 0.3162 µM)	relative viability (Neratinib + Crizotinib; first compound 1 µM)	relative viability (Neratinib + Trametinib; first compound 0.01 µM)	relative viability (Neratinib + Trametinib; first compound 0.1 µM)	relative viability (Neratinib + Trametinib; first compound 0.3162 µM)	relative viability (Neratinib + Trametinib; first compound 1 µM)	relative viability (Neratinib + Trametinib; first compound 0.03162 µM)
LU99A	0.92	0.905	0.87	0.801	0.683	0.287	0.311	0.292	0.288	0.26	0.513	0.586	0.472	0.527	0.32	0.578	0.515	0.527	0.43	
LXF-289	0.533	0.537	0.461	0.476	0.435	0.876	0.875	0.777	0.759	0.542	0.879	0.871	0.75	0.821	0.752	0.739	0.674	0.685	0.536	0.733
NCI-H23	0.959	0.905	0.827	0.731	0.597	0.717	0.664	0.561	0.504	0.296	0.697	0.572	0.413	0.486	0.27	0.397	0.35	0.342	0.251	0.401
NCI-H522	0.747	0.619	0.663	0.548	0.604	0.687	0.702	0.605	0.548	0.497						0.756	0.758	0.599	0.543	0.923
NCI-H1395	0.461	0.484	0.462	0.428	0.388		0.748	0.632	0.623	0.468						1.18	1.11	1.11	0.65	1.18
NCI-H1563	0.727	0.643	0.568	0.628	0.409	0.806	0.725	0.732	0.67	0.575	0.918	0.802	0.788	0.758	0.638					
NCI-H1648						0.297	0.265	0.303	0.305	0.278						0.449	0.276	0.262	0.335	0.402
NCI-H1703												0.582	0.637	0.5	0.14					
NCI-H1793	0.392	0.516	0.281	0.273	0.255	0.309	0.26	0.237	0.167	0.145						0.454	0.407	0.361	0.253	0.509
NCI-H2342	0.662	0.688	0.517	0.351	0.403	0.73	0.63	0.528	0.464	0.462						0.772	0.71	0.667	0.543	0.772
SW 900	0.537	0.658		0.609	0.309	0.597	0.604	0.621	0.574	0.385						0.866	0.527	0.729	0.467	0.906
